By IC50 is commonly meant the point on the concentration scale where inhibition reaches its midpoint.

Structures are written as SMILES.

The results in this text go back to patent US7960383B2, “Pyridazin-3(2H)-one derivatives and their use as PDE4 inhibitors” (Laboratorios Almirall SA, priority 2004, dated 2011).

In this experiment the target is PDE4 (Homo sapiens, UniProt Q07343). Put plainly: PDE4 Assay Procedure ([3H]-cAMP SPA). It counts as biochemical. As to conditions: read-out: HPDE4B or IC50 PDE4. The protocol: Compounds to be tested were resuspended in DMSO at a stock concentration of 1 mM. The compounds were tested at different concentrations varying from 10 pM to 10 μM to calculate an IC50. These dilutions were done in 96-well plates. In some cases, plates containing diluted compounds were frozen before being assayed. In these cases, the plates were thawed at room temperature and stirred for 15 minutes.
PDE4, sequence (Q07343 whole entry): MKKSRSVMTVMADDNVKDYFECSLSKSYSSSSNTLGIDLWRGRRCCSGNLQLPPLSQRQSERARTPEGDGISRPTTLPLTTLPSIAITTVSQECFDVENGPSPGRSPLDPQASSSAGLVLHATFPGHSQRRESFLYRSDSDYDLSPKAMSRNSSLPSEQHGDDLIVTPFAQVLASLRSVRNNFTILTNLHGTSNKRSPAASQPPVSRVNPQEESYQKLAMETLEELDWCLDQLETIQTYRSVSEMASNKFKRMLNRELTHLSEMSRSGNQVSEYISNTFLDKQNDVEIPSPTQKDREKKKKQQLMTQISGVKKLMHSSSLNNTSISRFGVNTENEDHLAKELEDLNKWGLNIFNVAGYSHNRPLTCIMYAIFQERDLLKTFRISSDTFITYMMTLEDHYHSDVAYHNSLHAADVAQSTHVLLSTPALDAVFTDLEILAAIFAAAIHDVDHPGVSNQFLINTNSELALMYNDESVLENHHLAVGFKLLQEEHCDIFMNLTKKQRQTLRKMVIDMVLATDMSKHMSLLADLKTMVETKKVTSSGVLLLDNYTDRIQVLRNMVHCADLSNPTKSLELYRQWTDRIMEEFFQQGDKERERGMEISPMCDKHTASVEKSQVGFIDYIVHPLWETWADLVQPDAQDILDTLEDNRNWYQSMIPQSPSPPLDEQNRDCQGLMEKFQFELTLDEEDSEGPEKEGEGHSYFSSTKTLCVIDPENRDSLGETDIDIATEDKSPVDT
Ten microliters of the diluted compounds were poured into a “low binding” assay plate. Eighty microliters of reaction mixture containing 50 mM Tris pH 7.5, 8.3 mM MgCl2, 1.7 mM EGTA, and 15 nM [3H]-cAMP were added to each well. The reaction was initiated by adding ten microliters of a solution containing PDE4. The plate was then incubated under stirring for 1 hour at room temperature. After incubation the reaction was stopped with 50 microlitres of SPA beads, and the reaction was allowed to incubate for another 20 minutes at room temperature before measuring radioactivity using standard instrumentation.
The reaction mixture was prepared by adding 90 ml of H2O to 10 ml of 10× assay buffer (500 mM Tris pH 7.5, 83 mM MgCl2, 17 mM EGTA), and 40 microlitres 1 μCi/μL [3H]-cAMP. SPA beads solution was prepared by adding 500 mg to […] H2O for a final concentration of 20 mg/ml beads and 18 mM zinc sulphate.
For `CCn1nc(C(=O)OC(C)c2ccccc2)c(C(C)=O)c(Nc2cncc3ccccc23)c1=O` (stereo not drawn) [Example 39, 1-Phenylethyl 4-acetyl-1-ethyl-5-(isoquinolin-4-ylamino)-6-oxo-1,6-dihydropyridazine-3-carboxylate], the IC50 stood at 1.5 nM.
With `CCn1nc(C(=O)OCCOc2ccccc2)cc(Nc2cncc3ccccc23)c1=O` [Example 49, 2-Phenoxyethyl 1-ethyl-5-(isoquinolin-4-ylamino)-6-oxo-1,6-dihydropyridazine-3-carboxylate], the IC50 worked out at 0.73 nM.
Take `CCn1nc(C(=O)OCc2ccsc2)cc(Nc2cnccc2C)c1=O` [Example 10, Thiophen-3-ylmethyl 1-ethyl-5-(4-methylpyridin-3-ylamino)-6-oxo-1,6-dihydropyridazine-3-carboxylate]: the IC50 is 19 nM.
With `CCn1nc(C(=O)OC(C)c2ccccc2)cc(Nc2cncc3ccccc23)c1=O` (stereo not drawn) [Example 14, 1-Phenylethyl 1-ethyl-5-(isoquinolin-4-ylamino)-6-oxo-1,6-dihydropyridazine-3-carboxylate], the IC50 was 2.4 nM.
Regarding `CCn1nc(C(=O)OCOC(=O)C(C)(C)CC)cc(Nc2cncc3ccccc23)c1=O` [Example 66, 2,2-Dimethylbutyryloxymethyl 1-ethyl-5-(isoquinolin-4-ylamino)-6-oxo-1,6-dihydropyridazine-3-carboxylate], the IC50 was determined as 0.36 nM.
Next, `CCn1nc(C(=O)OCc2ccccc2)c(C(C)=O)c(Nc2cncc3ccccc23)c1=O` [Example 33, Benzyl 4-acetyl-1-ethyl-5-(isoquinolin-4-ylamino)-6-oxo-1,6-dihydropyridazine-3-carboxylate]: 1.9 nM; `CCn1nc(C(=O)OCc2cccc(Cl)c2)c(C(C)=O)c(Nc2cncc3ccccc23)c1=O` [Example 69, 3-Chlorobenzyl 4-acetyl-1-ethyl-5-(isoquinolin-4-ylamino)-6-oxo-1,6-dihydropyridazine-3-carboxylate]: 0.49 nM.
Consider `CCn1nc(C(=O)OCc2cccc(OC)c2)cc(Nc2cncc3ccccc23)c1=O` [Example 11, 3-Methoxybenzyl 1-ethyl-5-(isoquinolin-4-ylamino)-6-oxo-1,6-dihydropyridazine-3-carboxylate], for which the IC50 came out at 1.6 nM.
With `CCn1nc(C(=O)OCc2cccc(Cl)c2)cc(Nc2cncc3ccccc23)c1=O` [Example 13, 3-Chlorobenzyl 1-ethyl-5-(isoquinolin-4-ylamino)-6-oxo-1,6-dihydropyridazine-3-carboxylate], the IC50 amounted to 2.9 nM.
The value for `CCCCCCCCOC(=O)c1nn(CC)c(=O)c(Nc2cncc3ccccc23)c1C(C)=O` [Example 71, Octyl 4-acetyl-1-ethyl-5-(isoquinolin-4-ylamino)-6-oxo-1,6-dihydropyridazine-3-carboxylate] was 5 nM; that for `CCn1nc(C(=O)OC(C)c2ccccc2)c(C(C)=O)c(Nc2cnccc2C)c1=O` (stereo not drawn) [Example 41, 1-Phenylethyl 4-acetyl-1-ethyl-5-[(4-methylpyridin-3-yl)amino]-6-oxo-1,6-dihydropyridazine-3-carboxylate] was 69 nM; that for `CCn1nc(C(=O)OC(C)Cc2ccccc2)c(C(C)=O)c(Nc2cncc3ccccc23)c1=O` (stereo not drawn) [Example 38, 1-Methyl-2-phenylethyl 4-acetyl-1-ethyl-5-(isoquinolin-4-ylamino)-6-oxo-1,6-dihydropyridazine-3-carboxylate] was 13 nM.
Take `CCn1nc(C(=O)OCc2ccccc2)cc(Nc2cnccc2C)c1=O` [Example 1, Benzyl 1-ethyl-5-(4-methylpyridin-3-ylamino)-6-oxo-1,6-dihydropyridazine-3-carboxylate]: the IC50 came out at 52 nM.
With `CCn1nc(C(=O)OC2CCC2)c(C(C)=O)c(Nc2cncc3ccccc23)c1=O` [Example 36, Cyclobutyl 4-acetyl-1-ethyl-5-(isoquinolin-4-ylamino)-6-oxo-1,6-dihydropyridazine-3-carboxylate], the IC50 is 44 nM.
Consider `CCn1nc(C(=O)OCc2ccccc2)c(C(C)=O)c(Nc2cccnc2)c1=O` [Example 26, Benzyl 4-acetyl-1-ethyl-6-oxo-5-(pyridin-3-ylamino)-1,6-dihydropyridazine-3-carboxylate], for which the IC50 turned out to be 5.1 nM.
For the compound `CCOC(=O)c1nn(CC)c(=O)c(Nc2cncc3ccccc23)c1C(C)=O` [Example 23, Ethyl 4-acetyl-1-ethyl-5-(isoquinolin-4-ylamino)-6-oxo-1,6-dihydropyridazine-3-carboxylate], the IC50 was 14 nM.
With `CCn1nc(C(=O)OCc2ccc(Br)cc2)cc(Nc2cncc3ccccc23)c1=O` [Example 51, 4-Bromobenzyl 1-ethyl-5-(isoquinolin-4-ylamino)-6-oxo-1,6-dihydropyridazine-3-carboxylate], the IC50 worked out at 0.48 nM.
Consider `CCn1nc(C(=O)OC(C)C)c(C(C)=O)c(Nc2cncc3ccccc23)c1=O` [Example 27, Isopropyl 4-acetyl-1-ethyl-5-(isoquinolin-4-ylamino)-6-oxo-1,6-dihydropyridazine-3-carboxylate], for which the IC50 came to 16 nM.
